{"source": "ChEMBL document CHEMBL5247609", "about": "“Novel nitric oxide-releasing derivatives of pyranocarbazole as antitumor agents: Design, synthesis, biological evaluation, and nitric oxide release studies” (Eur J Med Chem, 2022)", "assay_type_in_all_cases": "functional", "key": {"[1]": {"test_system": "MDA-MB-231", "assay": "Antiproliferative activity against human MDA-MB-231 cells assessed as reduction in cell viability by measuring release of nitrite at 100 uM after 180 mins by Griess reagent analysis", "conditions": "3 h"}, "[2]": {"test_system": "MDA-MB-231", "assay": "Induction of apoptosis in human MDA-MB-231 cells assessed as necrotic cells measured at 1 uM after 48 hrs by FITC-Annexin-V and propidium iodide based flow cytometric analysis (reference value: 0.253 %)"}, "[3]": {"test_system": "MDA-MB-231", "assay": "Induction of apoptosis in human MDA-MB-231 cells assessed as necrotic cells measured at 2 uM after 48 hrs by FITC-Annexin-V and propidium iodide based flow cytometric analysis (reference value: 0.253 %)"}, "[4]": {"test_system": "MDA-MB-231", "assay": "Induction of apoptosis in human MDA-MB-231 cells assessed as viable cells measured at 1 uM after 48 hrs by FITC-Annexin-V and propidium iodide based flow cytometric analysis (reference value: 94.4% )", "conditions": "read-out: Activity"}, "[5]": {"test_system": "MDA-MB-231", "assay": "Antitumor activity against human MDA-MB-231 cells xenografted in BALBC mouse assessed as inhibition of tumor growth at 24 mg/kg, ip administered every 3 days for 21 days relative to control", "conditions": "MDA-MB-231, 504 h, time 21 day, read-out: TGI"}, "[6]": {"test_system": "MDA-MB-231", "assay": "Induction of apoptosis in human MDA-MB-231 cells assessed as viable cells measured at 0.5 uM after 48 hrs by FITC-Annexin-V and propidium iodide based flow cytometric analysis (reference value: 94.4% )", "conditions": "read-out: Activity"}}, "data": [{"smiles": "CC1(C)C=Cc2c(c(/C=C/C(=O)NCCOc3no[n+]([O-])c3S(=O)(=O)c3ccccc3)cc3c2[nH]c2ccc(C(C)(C)C)cc23)O1", "values": [{"measurement": "Nitrite release", "setting": "[1]", "value": 54.7, "unit": "µM"}, {"measurement": "Activity", "setting": "[2]", "value": 0.209, "unit": "%"}, {"measurement": "Activity", "setting": "[3]", "value": 0.535, "unit": "%"}, {"measurement": "viability at 1 µM", "setting": "[4]", "value": 91.2, "unit": "%"}, {"measurement": "inhibition in vivo at 24 mg/kg", "setting": "[5]", "value": 84.3, "unit": "%"}, {"measurement": "viability at 0.5 µM", "setting": "[6]", "value": 92.4, "unit": "%"}]}]}
